Reference: patent US10336808B2, “MHC peptide complexes and uses thereof in infectious diseases” (priority 2007, dated 2019)

What was measured:
Type in all cases: cell-based, human
[1] = tested on: T2 cells loaded with peptide; assay: 51-Cr release assay of expanded T cell clones
Description: The ten expanded T cell clones isolated by Flow sorting as shown in example 39 were tested for their specificity by analysis in a standard 51-Cr release assay. […] One of these BclX(L)173-182 specific CD8 T-cell clones [Clone 9] were expanded for further analyses.

[2] = tested on: Bcl-X(L)-specific, CD8 positive T cells in PBL; assay: ELISPOT ex vivo with BclX(L) peptide; details: PBL from a breast cancer patient, with vs without peptide, FIG. 15
Description: In example 22 the best binding BclX(L) 10-mer peptide for HLA-A*0201 was identified to be […] (SEQ ID NO.: 46196). This peptide has then been tested in ELISPOT to see if it were able to detect the presence Bcl-X(L)-specific, CD8 positive T cells in PBL (Peripheral Blood Lymphocytes) from a breast cancer patient. PBL from a breast cancer patient was analyzed by ELISPOT ex vivo either with or without the Bcl-X(L)173-182 peptide ([…] (SEQ ID NO.: 46196)), […] in doublets. The number of spots was counted using the Immunospot Series 2.0 Analyzer (CTL Analysers).

[3] = tested on: T2 cells pulsed with peptide; assay: 51Cr-release assays with Bcl-X(L)173-182 specific clone 9
From the text: The Bcl-X(L)173-182 specific clone 9 was expanded for additional 2 weeks before the cytotoxic potential was examined further in 51Cr-release assays.

[4] = CD8 T-cell clones 8, 9, 10, 11 and 12, FIG. 17

Sequence	lysis of peptide pulsed T2 cells [1, 4]	ELISPOT detection of Bcl-X(L)-specific CD8 positive T cells (number of spots) [2]	lysis of peptide pulsed T2 cells ([1]; expanded clones 7, 13, 15, 17 and 18)	cell lysis of T2 cells pulsed with different concentrations of peptide ([3]; clone 9, E:T ratio 1:1, FIG. 18)	cell lysis of peptide pulsed T2 cells ([3]; clone 9, three E:T ratios, vs irrelevant peptide, FIG. 18)
GLQHWVPEL [BA4697-105, irrelevant peptide, reference compound]	without killing				
YLNDHLEPWI	effectively lysed	clearly shows the presence of BclX(L) specific T-cells	did not show specific lysis	significant even at low concentrations	necessary to get killing of the target cell
